What was measured:
[1] = test system: Myzus persicae (Green Peach Aphid); assay: Myzus persicae feeding/residual contact activity, preventive (sunflower leaf discs); type: in vivo; details: single active ingredient, 6 DAT
From the text: (§1) The action to be expected E for a given active ingredient combination obeys the so-called COLBY formula and can be calculated as follows (COLBY, S. R. “Calculating synergistic and antagonistic responses of herbicide combination”. Weeds, Vol. 15, pages 20-22; 1967):
(§2) ppm=milligrams of active ingredient (=a.i.) per liter of spray mixture
(§3) X=% action by active ingredient A) using p ppm of active ingredient
(§4) Y=% action by active ingredient B) using q ppm of active ingredient.
(§5) According to COLBY, the expected (additive) action of active ingredients A)+B) using p+q ppm of active ingredient is
(§6) If the action actually observed (0) is greater than the expected action (E), then the action of the combination is super-additive, i.e. there is a synergistic effect. In mathematical terms the synergism factor SF corresponds to O/E. In the agricultural practice an SF of ≧1.2 indicates significant improvement over the purely complementary addition of activities (expected activity), while an SF of ≦0.9 in the practical application routine signals a loss of activity compared to the expected activity.
Myzus persicae (Green Peach Aphid):
Feeding/Residual Contact Activity, Preventive
Sunflower leaf discs were placed on agar in a 24-well microtiter plate and sprayed with the DMSO test solutions of Mixtures (as provided by Table 45). After drying, the leaf discs were infested with an aphid population of mixed ages. After an incubation period of 6 DAT (days after treatment), samples were checked for mortality.

[2] = test system: Tetranychus urticae (Two-Spotted Spider Mite); assay: Tetranychus urticae feeding/contact activity, preventive (bean leaf discs); type: in vivo; details: single active ingredient, mobile stages
From the text: as §1, §2, §3, §4, §5, §6
Tetranychus urticae (Two-Spotted Spider Mite): Feeding/Contact Activity, Preventive
Bean leaf discs on agar in 24-well microtiter plates were sprayed with the DMSO test solutions of certain Mixtures (as provided by Table 45). After drying, the leaf discs were infested with mite populations of mixed ages. 8 days later, discs were checked for mortality against mobile stages.

Structure (SMILES): N#CCNC(=O)c1cnccc1C(F)(F)F [Flonicamid]
- AVERAGE DEAD IN % AFTER 6 DAYS ([1]; 0.75 ppm AI): 0%
- AVERAGE DEAD IN % AFTER 6 DAYS ([1]; 1.5 ppm AI): 0%
- AVERAGE DEAD IN % AFTER 6 DAYS ([1]; 3 ppm AI): 7.5%
- AVERAGE DEAD IN % AFTER 6 DAYS ([1]; 6 ppm AI): 40%
- AVERAGE DEAD IN % AFTER 6 DAYS ([1]; 12 ppm AI): 82.5%
- AVERAGE DEAD IN % AFTER 8 DAYS ([2]; 50 ppm AI): 0%
- AVERAGE DEAD IN % AFTER 8 DAYS ([2]; 100 ppm AI): 0%
- AVERAGE DEAD IN % AFTER 8 DAYS ([2]; 200 ppm AI): 0%
- AVERAGE DEAD IN % AFTER 8 DAYS ([2]; 400 ppm AI): 0%
- AVERAGE DEAD IN % AFTER 8 DAYS ([2]; 800 ppm AI): 12.5%
